Read-outs that look alike come from different tables or passages of the source.
Legend:
FLT3 D835Y = target: T1, FLT3 D835Y (Homo sapiens, UniProt P36888, D835Y); test: ADP-Glo kinase assay, FLT3 D835Y; type: biochemical; details: recombinant FLT3 (D835Y), 120 min room temperature, read-out: Enzyme activity (IC50, nM) FLT3 D835Y
T1 construct: Recombinant proteins containing the FLT3 and FLT3 (D835Y) domains were purchased from Promega; purchased Promega V4514
T1 sequence (P36888 610-943 D835Y limits assumed): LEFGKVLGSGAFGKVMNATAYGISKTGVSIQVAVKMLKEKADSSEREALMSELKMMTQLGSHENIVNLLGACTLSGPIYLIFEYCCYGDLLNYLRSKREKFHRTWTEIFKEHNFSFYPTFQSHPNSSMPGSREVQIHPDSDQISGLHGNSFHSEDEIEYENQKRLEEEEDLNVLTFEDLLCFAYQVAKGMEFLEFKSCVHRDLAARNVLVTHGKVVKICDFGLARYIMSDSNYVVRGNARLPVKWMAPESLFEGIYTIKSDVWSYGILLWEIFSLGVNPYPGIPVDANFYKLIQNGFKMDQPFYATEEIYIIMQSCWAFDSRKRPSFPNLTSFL
Protocol: FLT3 activity inhibition was measured by ADP-Glo kinase assay (Promega, cat #V9101). ADP-Glo kinase analysis method is an emission ADP detect method which measures kinase activity by quantification of ADP amount produced during kinase reaction and provides uniform high-throughput screening method.
Analysis performed in two steps. First, after kinase reaction, ADP-Glo™ reagent of equal volume was added to finish kinase reaction, and then the rest ATP was exhausted. Second, Kinase Detection Reagent was added to convert ADP to ATP and newly synthesized ATP was measured by luciferase/luciferin reaction at the same time. Generated light was measured by using luminometer. The measured luminescence amount can be applied to the ATP→ADP standard conversion curve to confirm the correlation with the ADP concentration.
Recombinant proteins containing the FLT3 and FLT3 (D835Y) domains were purchased from Promega (cat #V4064, cat #V4514), respectively. According to the manufacturer's instructions, optimal enzyme, ATP, and substrate concentration were established using the ADP-Glo™ Kinase Assay (Promega, USA). Kinase reaction buffer 5× (200 mM Tris-HCl, pH 7.5, 100 mM MgCl2, 0.5 mg/ml BSA) was diluted and used, and the diluted compound of the present invention (5×, 1 μl), FLT3 enzyme or FLT3/D835Y enzyme (2.5×, 2 μl) and substrate/ATP mixture (2.5×, 2 μl), were mixed sequentially and reacted at room temperature for 120 minutes. Then, ADP-Glo™ Reagent (5 μl) was added and reacted for 40 min at room temperature. Finally, after adding a reagent for detection (Kinase Detection Reagent, 10 μl), reacting at room temperature for 30 min, and then phosphorylation of substrate peptide was measured by measuring luciferase signal (Integration time 0.5-1 second) using SpectraMax ID5 reader (Molecular Devices LLC., San Jose, CA, USA). IC50 was calculated by nonlinear regression using Prism version 5.01 (GrapghPad).

MV4-11 = test: Cell proliferation inhibition in AML cell line MV4-11 (Alamar Blue); type: cell-based; details: Homo sapiens, MV4-11, 72 hours, read-out: Cell proliferation inhibitory activity (GI50) MV4-11
Excerpt: (§1) Cell proliferation inhibition experiments on acute myeloid leukemia (AML) cell lines tested FLT3 inhibitory activity using MV4-11, Molm-13, and Molm-14 cells, which are FLT3-ITD-expressed AML cell lines. The origin of all cell lines is human-derived cell lines, and the place of purchase and culture conditions of each cell line are as follows.
(§2) MV4-11 cells were purchased form the American Type Culture Collection (ATCC, Rockville, MD, USA, cat #CRL-9591), Molm-13 (DSMZ, cat #ACC554), Molm-14 (DSMZ, cat #ACC777), and then cultured in RPMI 1640 medium (Corning Co. 10-040-CV) supplemented with 10% fetal bovine serum, 1% penicillin/streptomycin and 4 mM L-glutamine (Life Technology, GrandIsland, NY).
(§3) Cell viability was evaluated by Resazurin redox-based analysis method with Alamar Blue Assay Kit (Invitrogen, USA). Specifically, for MV4-11, Molm-13 and Molm-14 cells, 8000 cells were plated on 384-well plates in 45 μl of medium. Compounds were treated with dimethyl sulfoxide (DMSO) as a negative control group. After 3 days (72 hours) of compound addition, 5 μl of Alamar Blue kit reagent was added to each well of 384-well plate and incubated at 37° C. for 2 hours in a humidified CO2 incubator. After incubation, fluorescence density (Flu) was measured at a wavelength of 544 nm and 590 nm using SpectraMax iD3 Multi Mode Microplate Reader (Molecular Devices, ID3-STD). GI50 was calculated by nonlinear regression using Prism version 5.01 (GraphPad, LaJolla, CA, USA).

Molm-13 = test: Cell proliferation inhibition in AML cell line Molm-13 (Alamar Blue); type: cell-based; details: Homo sapiens, Molm-13, 72 hours, read-out: Cell proliferation inhibitory activity (GI50) Molm-13
Excerpt: as §1, §2, §3

Molm-14 = test: Cell proliferation inhibition in AML cell line Molm-14 (Alamar Blue); type: cell-based; details: Homo sapiens, Molm-14, 72 hours, read-out: Cell proliferation inhibitory activity (GI50) Molm-14
Excerpt: as §1, §2, §3

| SMILES | IC50 (FLT3 D835Y) | GI50 (MV4-11; pM) | GI50 (Molm-13; pM) | GI50 (Molm-14; pM) | GI50 (MV4-11) | GI50 (Molm-13) | GI50 (Molm-14) |
| --- | --- | --- | --- | --- | --- | --- | --- |
| O=C1Nc2ccc(Br)cc2/C1=C1/Nc2ccccc2/C1=N\OCCN1C[C@H]2C[C@@H]1CN2 [Example 13, (2Z,3E)-3-((2-((1R,4R)-2,5-diazabicyclo[2.2.1]heptan-2-yl)ethoxy)imino)-5′-bromo-[2,3′-biindolinylidene]-2′-one] | 0.686 nM | 61 pM | 200 pM | 170 pM |  |  |  |
| O=C1Nc2ccc(F)cc2/C1=C1/Nc2ccccc2/C1=N\OCC(=O)N1CC2(CNC2)C1 [Example 18, (2Z,3E)-5′-fluoro-3-((2-oxo-2-(2,6-diazaspiro[3.3]heptan-2-yl)ethoxy)imino)-[2,3′-biindolinylidene]-2′-one] | 0.306 nM |  |  |  | 100000 pM |  |  |
| O=C1Nc2ccccc2/C1=C1/Nc2ccccc2/C1=N\OCCN1C[C@@H]2C[C@H]1CN2 [Example 5, (2Z,3E)-3-((2-((1S,4S)-2,5-diazabicyclo[2.2.1]heptan-2-yl)ethoxy)imino)-[2,3′-biindolinylidene]-2′-one] | 0.135 nM |  |  |  | 663 pM | 1780 pM | 1660 pM |
| O=C1Nc2ccc(F)cc2/C1=C1/Nc2ccccc2/C1=N\OCCN1C[C@@H]2C[C@H]1CN2 [Example 10, (2Z,3E)-3-((2-((1S,4S)-2,5-diazabicyclo[2.2.1]heptan-2-yl)ethoxy)imino)-5′-fluoro-[2,3′-biindolinylidene]-2′-one] | 0.428 nM |  |  |  | 685 pM | 1390 pM | 1860 pM |
| O=C1Nc2ccccc2/C1=C1/Nc2ccccc2/C1=N\OCCN[C@H]1[C@@H]2CNC[C@@H]21 [Example 2, (2Z,3E)-3-((2-((1R,5S,6s)-3-azabicyclo[3.1.0]hexan-6-ylamino)ethoxy)imino)-[2,3′-biindolinylidene]-2′-one] | 0.524 nM |  |  |  | 7900 pM |  |  |
| O=C1Nc2ccc(F)cc2/C1=C1/Nc2ccccc2/C1=N\OCCN[C@H]1[C@@H]2CNC[C@@H]21 [Example 7, (2Z,3E)-3-((2-((1R,5S,6s)-3-azabicyclo[3.1.0]hexan-6-ylamino)ethoxy)imino)-5′-fluoro-[2,3′-biindolinylidene]-2′-one] | 0.37 nM |  |  |  | 5650 pM |  |  |
| O=C1Nc2ccccc2/C1=C1/Nc2ccccc2/C1=N\OCCN1C[C@H]2C[C@@H]1CN2 [Example 4, (2Z,3E)-3-((2-((1R,4R)-2,5-diazabicyclo[2.2.1]heptan-2-yl)ethoxy)imino)-[2,3′-biindolinylidene]-2′-one] | 0.216 nM |  | 40 pM | 30 pM |  |  |  |
| O=C1Nc2ccc(F)cc2/C1=C1/Nc2ccccc2/C1=N\OCCN1C[C@H]2C[C@@H]1CN2 [Example 9, (2Z,3E)-3-((2-((1R,4R)-2,5-diazabicyclo[2.2.1]heptan-2-yl)ethoxy)imino)-5′-fluoro-[2,3′-biindolinylidene]-2′-one] | 0.667 nM |  | 500 pM | 470 pM | 260 pM |  |  |
| O=C1Nc2ccccc2/C1=C1/Nc2ccccc2/C1=N\OCC(=O)N1C[C@H]2C[C@@H]1CN2 [Example 17, (2Z,3E)-3-((2-((1R,4R)-2,5-diazabicyclo[2.2.1]heptan-2-yl)-2-oxoethoxy)imino)-[2,3′-biindolinylidene]-2′-one] | 0.552 nM |  |  |  | 440 pM |  |  |
| O=C1Nc2ccc(Cl)cc2/C1=C1/Nc2ccccc2/C1=N\OCCN1C[C@H]2C[C@@H]1CN2 [Example 11, (2Z,3E)-3-((2-((1R,4R)-2,5-diazabicyclo[2.2.1]heptan-2-yl)ethoxy)imino)-5′-chloro-[2,3′-biindolinylidene]-2′-one] | 0.553 nM | 40 pM | 162 pM | 100 pM |  |  |  |
| O=C1Nc2ccc(F)cc2/C1=C1/Nc2ccccc2/C1=N\OCCN1CC2(CNC2)C1 [Example 6, (2Z,3E)-3-((2-(2,6-diazaspiro[3.3]heptan-2-yl)ethoxy)imino)-5′-fluoro-[2,3′-biindolinylidene]-2′-one] | 0.488 nM |  |  |  | 15600 pM |  |  |
| O=C(CO/N=C1/C(=C2/C(=O)Nc3ccccc32)Nc2ccccc21)N[C@H]1[C@@H]2CNC[C@@H]21 [Example 16, N-((1R,5S,6s)-3-azabicyclo[3.1.0]hexan-6-yl)-2-(((E)-((Z)-2′-oxo-[2,3′-biindolinylidene]-3-ylidene)amino)oxy)acetamide] | 0.661 nM |  |  |  | 5040 pM |  |  |
| O=C1Nc2ccccc2/C1=C1/Nc2ccccc2/C1=N\OCCN1CC2(CNC2)C1 [Example 1, (2Z,3E)-3-((2-(2,6-diazaspiro[3.3]heptan-2-yl)ethoxy)imino)-[2,3′-biindolinylidene]-2′-one] | 0.329 nM |  |  |  | 12400 pM |  |  |
| O=C1Nc2ccccc2/C1=C1/Nc2ccccc2/C1=N\OCC(=O)N1CC2(CNC2)C1 [Example 15, (2Z,3E)-3-((2-oxo-2-(2,6-diazaspiro[3.3]heptan-2-yl)ethoxy)imino)-[2,3′-biindolinylidene]-2′-one] | 0.798 nM |  |  |  | 100000 pM |  |  |
| O=C(CO/N=C1/C(=C2/C(=O)Nc3ccc(F)cc32)Nc2ccccc21)N[C@H]1[C@@H]2CNC[C@@H]21 [Example 19, N-((1R,5S,6s)-3-azabicyclo[3.1.0]hexan-6-yl)-2-(((E)-((Z)-5′-fluoro-2′-oxo-[2,3′-biindolinylidene]-3-ylidene)amino)oxy)acetamide] | 0.511 nM |  |  |  | 6780 pM |  |  |
| O=C1Nc2ccc(F)cc2/C1=C1/Nc2ccccc2/C1=N\OCC(=O)N1C[C@H]2C[C@@H]1CN2 [Example 20, (2Z,3E)-3-((2-((1R,4R)-2,5-diazabicyclo[2.2.1]heptan-2-yl)-2-oxoethoxy)imino)-5′-fluoro-[2,3′-biindolinylidene]-2′-one] | 0.271 nM |  |  |  | 1320 pM |  |  |
| N[C@@H]1[C@H]2CN(CCO/N=C3/C(=C4/C(=O)Nc5ccc(F)cc54)Nc4ccccc43)C[C@@H]12 [Example 8, (2Z,3E)-3-((2-((1R,5S,6s)-6-amino-3-azabicyclo[3.1.0]hexan-3-yl)ethoxy)imino)-5′-fluoro-[2,3′-biindolinylidene]-2′-one] | 0.303 nM |  |  |  | 90600 pM |  |  |
| N[C@@H]1[C@H]2CN(CCO/N=C3/C(=C4/C(=O)Nc5ccccc54)Nc4ccccc43)C[C@@H]12 [Example 3, (2Z,3E)-3-((2-((1R,5S,6s)-6-amino-3-azabicyclo[3.1.0]hexan-3-yl)ethoxy)imino)-[2,3′-biindolinylidene]-2′-one] | 0.303 nM |  |  |  | 90600 pM |  |  |

— patent publication US20240010635A1, “NOVEL INDIRUBIN DERIVATIVES HAVING HETEROBICYCLIC MOIETIES AND THE USE THEREOF” (priority 2022, published 2024)
